The IC50 is the point on the concentration scale where inhibition reaches its midpoint.

For this assay, the target named is T1, human capsaicin receptor (Homo sapiens, UniProt Q8NER1).
T1 construct: A cDNA encoding full length human capsaicin receptor recited in U.S. Pat. No. 6,482,611 was subcloned in the plasmid pBK-CMV; expressed in transfected cells
T1 sequence (Q8NER1 whole entry): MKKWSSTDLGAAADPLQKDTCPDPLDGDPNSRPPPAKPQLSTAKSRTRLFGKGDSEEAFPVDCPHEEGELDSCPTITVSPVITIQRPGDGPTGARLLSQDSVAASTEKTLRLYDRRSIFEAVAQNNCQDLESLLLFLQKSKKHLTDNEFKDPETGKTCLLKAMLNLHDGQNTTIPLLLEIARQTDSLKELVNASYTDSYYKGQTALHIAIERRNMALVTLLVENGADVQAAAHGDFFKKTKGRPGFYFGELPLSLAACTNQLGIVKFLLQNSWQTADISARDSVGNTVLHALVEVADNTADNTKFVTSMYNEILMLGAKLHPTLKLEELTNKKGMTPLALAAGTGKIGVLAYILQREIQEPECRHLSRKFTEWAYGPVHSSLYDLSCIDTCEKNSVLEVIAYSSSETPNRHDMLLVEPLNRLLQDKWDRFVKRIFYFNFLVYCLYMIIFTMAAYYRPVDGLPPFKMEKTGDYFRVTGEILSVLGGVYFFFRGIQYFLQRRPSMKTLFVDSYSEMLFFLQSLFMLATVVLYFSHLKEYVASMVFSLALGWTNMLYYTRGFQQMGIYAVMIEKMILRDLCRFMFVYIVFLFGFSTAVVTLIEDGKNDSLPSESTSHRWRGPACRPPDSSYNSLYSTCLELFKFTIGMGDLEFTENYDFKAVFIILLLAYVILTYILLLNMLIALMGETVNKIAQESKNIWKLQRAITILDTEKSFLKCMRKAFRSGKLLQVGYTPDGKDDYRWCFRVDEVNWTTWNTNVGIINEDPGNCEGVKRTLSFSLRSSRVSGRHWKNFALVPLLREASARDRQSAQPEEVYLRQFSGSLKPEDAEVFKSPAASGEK
The experiment in a line: Calcium mobilization assay (Example 6). The class given is cell-based. The settings on record: concentration required to provide a 50% decrease in the fluorescence response of cells exposed to one IC50 of capsaicin. Here is the method:
Human embryonic kidney (HEK293) cells were transfected with the pBK-CMV expression construct encoding the full length human capsaicin receptor using standard methods. The transfected cells were selected for two weeks in media containing G418 (400 μg/ml) to obtain a pool of stably transfected cells. Independent clones were isolated from this pool by limiting dilution to obtain clonal stable cell lines for use in subsequent experiments.
Cells transfected with expression plasmids (as described in Example 4) and thereby expressing human capsaicin receptor are seeded and grown to 70-90% confluency in FALCON black-walled, clear-bottomed 96-well plates (#3904, BECTON-DICKINSON, Franklin Lakes, N.J.). The culture medium is emptied from the 96 well plates and FLUO-3 AM calcium sensitive dye (Molecular Probes, Eugene, Oreg.) is added to each well (dye solution: 1 mg FLUO-3 AM, 440 μL DMSO and 440 μl 20% pluronic acid in DMSO, diluted 1:250 in Krebs-Ringer HEPES (KRH) buffer (25 mM HEPES, 5 mM KCl, 0.96 mM NaH2PO4, 1 mM MgSO4, 2 mM CaCl2, 5 mM glucose, 1 mM probenecid, pH 7.4), 50 μl diluted solution per well). Plates are covered with aluminum foil and incubated at 37° C. for 1-2 hours in an environment containing 5% CO2. After the incubation, the dye is emptied from the plates, and the cells are washed once with KRH buffer, and, resuspended in KRH buffer.
Agonist (e.g., olvanil, capsaicin, or RTX)-induced calcium mobilization is monitored using either FLUOROSKAN ASCENT (Labsystems, Franklin, Mass.) or FLIPR (fluorometric imaging plate reader system, Molecular Devices, Sunnyvale, Calif.) instruments. Varying concentrations of the antagonists ruthenium red or capsazepine (RBI; Natick, Mass.) are added to cells concurrently with agonist (e.g., 25-50 nM capsaicin). For agonist-induced calcium responses, data obtained between 30 and 60 seconds after agonist application are used to generate the IC50 values. KALEIDAGRAPH software (Synergy Software, Reading, Pa.) is used to fit the data to the equation: y=a*(1/(1+(b/x)^c)) to determine the IC50 for the response. In this equation, y is the maximum fluorescence signal, x is the concentration of the agonist or antagonist, a is the Emax, b corresponds to the IC50 value and c is the Hill coefficient.
To measure the ability of a test compound to antagonize (inhibit) the response of cells expressing capsaicin receptors to capsaicin or other vanilloid agonist, the IC50 of capsaicin is first determined. An additional 20 μl of KRH buffer and 1 μl DMSO is added to each well of cells, prepared as described above. 100 μl capsaicin in KRH buffer is automatically transferred by the FLIPR instrument to each well. An 8-point concentration response curve, with final capsaicin concentrations of 1 nM to 3 μM, is used to determine capsaicin IC50.
Test compounds are dissolved in DMSO, diluted in 20 μl KRH buffer so that the final concentration of test compounds in the assay well is between 1 μM and 5 μM, and added to cells prepared as described above. The 96 well plates containing prepared cells and test compounds are incubated in the dark, at room temperature for 0.5 to 6 hours. It is important that the incubation not continue beyond 6 hours. Just prior to determining the fluorescence response, 100 μl capsaicin in KRH buffer at twice the IC50 concentration determined from the concentration response curve is automatically added by the FLIPR instrument to each well of the 96 well plate for a final sample volume of 200 μl and a final capsaicin concentration equal to the IC50. The final concentration of test compounds in the assay wells is between 1 μM and 5 μM. […] Antagonists of the capsaicin receptor decrease this response by at least about 20%, preferably by at least about 50%, and most preferably by at least 80% as compared to matched control. The concentration of antagonist required to provide a 50% decrease is the IC50 for the antagonist, and is preferably below 1 micromolar, 100 nanomolar, 10 nanomolar or 1 nanomolar. […]
In general terms: A change in cytosolic calcium serves as a functional read-out for many receptors and channels.
Regarding `CC(C)(C)c1ccc(Nc2cc(N3CCCCC3)nc3cc(-c4ncccc4C(F)(F)F)ccc23)cc1` [Compound 26, N-(4-tert-butylphenyl)-2-piperidin-1-yl-7-[3-(trifluoromethyl)pyridin-2-yl]quinolin-4-amine], the IC50 was ≤ 1 µM. With `CCCCNc1cc(Nc2ccc(C(C)(C)C)cc2)c2ccc(-c3ncccc3C(F)(F)F)cc2n1` [Compound 27, N~2~-butyl-N~4~-(4-tert-butylphenyl)-7-[3-(trifluoromethyl)pyridin-2-yl]quinoline-2,4-diamine] the figure was ≤ 1 µM; with `CC(C)(C)c1ccc(Nc2cc(N3CCCC3)nc3cc(-c4ncccc4C(F)(F)F)ccc23)cc1` [Compound 28, N-(4-tert-butylphenyl)-2-pyrrolidin-1-yl-7-[3-(trifluoromethyl)pyridin-2-yl]quinolin-4-amine], ≤ 1 µM; with `CC(C)CCNc1cc(Nc2ccc(C(C)(C)C)cc2)c2ccc(-c3ncccc3C(F)(F)F)cc2n1` [Compound 29, N~4~-(4-tert-butylphenyl)-N~2~-isopentyl-7-[3-(trifluoromethyl)pyridin-2-yl]quinoline-2,4-diamine], ≤ 1 µM. As to `CCOc1cc(Nc2ccc(C(C)(C)C)cc2)c2ccc(-c3ncccc3C(F)(F)F)cc2n1` [Compound 30, N-(4-tert-butylphenyl)-2-ethoxy-7-[3-(trifluoromethyl)pyridin-2-yl]quinolin-4-amine], the IC50 is ≤ 1 µM. As to `Oc1cc(Nc2ccc(C(F)(F)F)cc2)c2ccc(-c3ncccc3C(F)(F)F)nc2n1` [Compound 31, 4-{[4-(trifluoromethyl)phenyl]amino}-7-[3-(trifluoromethyl)pyridin-2-yl]-1,8-naphthyridin-2-ol], the 50% inhibitory concentration (IC50) was ≤ 1 µM.

As to `CC(C)CCOc1cc(Nc2ccc(C(C)(C)C)cc2)c2ccc(-c3ncccc3C(F)(F)F)cc2n1` [Compound 32, N-(4-tert-butylphenyl)-2-(isopentyloxy)-7-[3-(trifluoromethyl)pyridin-2-yl]quinolin-4-amine], the IC50 is ≤ 1 µM.

For the compound `CCCOc1cc(Nc2ccc(C(C)(C)C)cc2)c2ccc(-c3ncccc3C(F)(F)F)cc2n1` [Compound 33, N-(4-tert-butylphenyl)-2-propoxy-7-[3-(trifluoromethyl)pyridin-2-yl]quinolin-4-amine], the IC50 is ≤ 1 µM.

For the compound `FC(F)(F)c1ccc(Nc2cc(Cl)nc3nc(-c4ncccc4C(F)(F)F)ccc23)cc1` [Compound 34, 2-chloro-N-[4-(trifluoromethyl)phenyl]-7-[3-(trifluoromethyl)pyridin-2-yl]-1,8-naphthyridin-4-amine], the concentration for half-maximal inhibition (IC50) was ≤ 1 µM.

`FC(F)(F)c1ccc(Nc2ccnc3nc(-c4ncccc4C(F)(F)F)ccc23)cc1` [Compound 35, N-[4-(trifluoromethyl)phenyl]-7-[3-(trifluoromethyl)pyridin-2-yl]-1,8--naphthyridin-4-amine]: the IC50 was ≤ 1 µM. Turning to `CCOc1cc(Nc2ccc(C(F)(F)F)cc2)c2ccc(-c3ncccc3C(F)(F)F)nc2n1` [Compound 36, 2-ethoxy-N-[4-(trifluoromethyl)phenyl]-7-[3-(trifluoromethyl)pyridin-2-yl]-1,8-naphthyridin-4-amine], the half-inhibitory concentration (IC50) was ≤ 1 µM.

In the case of `CCOc1cc(Nc2ccc(C(C)(C)C)cc2)c2ccc(-c3ncccc3C(F)(F)F)nc2n1` [Compound 37, N-(4-tert-butylphenyl)-2-ethoxy-7-[3-(trifluoromethyl)pyridin-2-yl]-1,8-naphthyridin-4-amine], the IC50 is ≤ 1 µM. Take `CCOc1cc(Nc2ccc(C(C)C)cc2)c2ccc(-c3ncccc3C(F)(F)F)nc2n1` [Compound 38, 2-ethoxy-N-(4-isopropylphenyl)-7-[3-(trifluoromethyl)pyridin-2-yl]-1,8-naphthyridin-4-amine]: the IC50 was ≤ 1 µM.

On to `Cc1cc(Nc2ccc(C(F)(F)F)cn2)c2ccc(-c3ncccc3C(F)(F)F)nc2n1` [Compound 39, 2-methyl-7-[3-(trifluoromethyl)pyridin-2-yl]-N-[5-(trifluoromethyl)pyridin-2-yl]-1,8-naphthyridin-4-amine], for which the concentration for half-maximal inhibition (IC50) is ≤ 1 µM. Take `CCOCc1cc(Nc2ccc(C(F)(F)F)cc2)c2ccc(-c3ncccc3C(F)(F)F)nc2n1` [Compound 40, 2-(ethoxymethyl)-N-[4-(trifluoromethyl)phenyl]-7-[3-(trifluoromethyl)pyridin-2-yl]-1,8-naphthyridin-4-amine]: the IC50 is ≤ 1 µM. For the compound `CC(C)OCc1cc(Nc2ccc(C(F)(F)F)cc2)c2ccc(-c3ncccc3C(F)(F)F)nc2n1` [Compound 41, 2-(isopropoxymethyl)-N-[4-(trifluoromethyl)phenyl]-7-[3-(trifluoromethyl)pyridin-2-yl]-1,8-naphthyridin-4-amine], the 50% inhibitory concentration (IC50) is ≤ 1 µM. Consider `CC(C)CCOCc1cc(Nc2ccc(C(F)(F)F)cc2)c2ccc(-c3ncccc3C(F)(F)F)nc2n1` [Compound 42, 2-[(isopentyloxy)methyl]-N-[4-(trifluoromethyl)phenyl]-7-[3-(trifluoromethyl)pyridin-2-yl]-1,8-naphthyridin-4-amine], for which the IC50 was ≤ 1 µM. Consider `CCCOCc1cc(Nc2ccc(C(F)(F)F)cc2)c2ccc(-c3ncccc3C(F)(F)F)nc2n1` [Compound 43, 2-(propoxymethyl)-N-[4-(trifluoromethyl)phenyl]-7-[3-(trifluoromethyl)pyridin-2-yl]-1,8-naphthyridin-4-amine], for which the IC50 is ≤ 1 µM. As for `CC(C)COCc1cc(Nc2ccc(C(F)(F)F)cn2)c2ccc(-c3ncccc3C(F)(F)F)nc2n1` [Compound 44, 2-(isobutoxymethyl)-7-[3-(trifluoromethyl)pyridin-2-yl]-N-[5-(trifluoromethyl)pyridin-2-yl]-1,8-naphthyridin-4-amine], the half-maximal inhibitory concentration (IC50) is ≤ 1 µM.

Regarding `CCOc1cc(Nc2ccc(C(F)(F)F)cn2)c2ccc(-c3ncccc3C(F)(F)F)nc2n1` [Compound 45, 2-ethoxy-7-[3-(trifluoromethyl)pyridin-2-yl]-N-[5-(trifluoromethyl)pyridin-2-yl]-1,8-naphthyridin-4-amine], the half-maximal inhibitory concentration (IC50) is ≤ 1 µM. The figure for `CCOc1cc(Nc2ccc(S(=O)(=O)C(F)(F)F)cc2)c2ccc(-c3ncccc3C(F)(F)F)nc2n1` [Compound 46, 2-ethoxy-7-[3-(trifluoromethyl)pyridin-2-yl]-N-{4-[(trifluoromethyl)sulfonyl]phenyl}-1,8-naphthyridin-4-amine] is ≤ 1 µM. For `COc1cc(Nc2ccc(C(C)(C)C)cc2)c2ccc(-c3ncccc3C(F)(F)F)nc2n1` [Compound 47, N-(4-tert-butylphenyl)-2-methoxy-7-[3-(trifluoromethyl)pyridin-2-yl]-1,8-naphthyridin-4-amine], the half-maximal inhibitory concentration (IC50) was ≤ 1 µM. The figure for `Cc1cc(Nc2ccc(C(F)(F)F)cc2)c2ccc(-c3ncccc3C(F)(F)F)nc2n1` [Compound 48, 2-methyl-N-[4-(trifluoromethyl)phenyl]-7-[3-(trifluoromethyl)pyridin-2-yl]-1,8-naphthyridin-4-amine] is ≤ 1 µM; for `CC1CCCN1Cc1cc(Nc2ccc(C(F)(F)F)cc2)c2ccc(-c3ncccc3C(F)(F)F)nc2n1` (stereo not drawn) [Compound 49, 2-[(2-methylpyrrolidin-1-yl)methyl]-N-[4-(trifluoromethyl)phenyl]-7-[3-(trifluoromethyl)pyridin-2-yl]-1,8-naphthyridin-4-amine] it is ≤ 1 µM.
